The results in this text go back to US8686150B2 (Sanofi, priority 2011, dated 2014).

SMILES strings stand for the structures.

The test addresses T1, human full-length recombinant PKC βII (Homo sapiens, UniProt P05771).
T1 construct: Active human full-length recombinant PKC βII; purchased Invitrogen GmbH, Darmstadt, Germany
As to the kind of experiment: Determination of PKC βII inhibition (Caliper mobility-shift kinase assay, Fluorescein-RFARKGSLRQKNV peptide substrate). It is filed as biochemical. As to conditions: example compounds at a final concentration of 1.14 μM (±0.15 μM). The protocol:
Determination of PKC βII Inhibition
PKC βII Inhibition was Determined According to the Following Protocol:
Active human full-length recombinant PKC βII and the peptide substrate, Fluorescein-RFARKGSLRQKNV, were purchased from Invitrogen GmbH, Darmstadt, Germany. Adenosine-5′-triphosphate (ATP), bovine serum albumine (BSA), dimethylsulphoxide (DMSO), 4-(2-hydroxyethyl)piperazine-1-ethanesulfonic acid (Hepes), Triton X-100, 1,2-Dioleoyl-sn-glycerol (DAG), L-G-Phosphatidyl-L-serine (PS), calcium chloride (CaCl2), and Pluronic F-68 were purchased from Sigma-Aldrich, Munich, Germany. Magnesium chloride, 1 M sodium hydroxide solution, 1M hydrochloric acid solution and EDTA were obtained from Merck Biosciences, Darmstadt, Germany.
Test compounds were diluted to three times the test concentration in buffer 1 (30 mM Hepes-NaOH, pH 7.4, 0.01% Pluronic F-68 and 3% (v/v) DMSO). The PKC enzyme was diluted to a concentration of 30 ng/ml in buffer 2 (30 mM Hepes-NaOH, pH 7.4, 15 mM MgCl2, 150 μM CaCl2, 150 μg/ml PS, 60 μg/ml DAG, and 0.045% (w/v) Triton X-100). The peptide substrate and ATP were diluted to concentrations of 3 μM and 120 μM, respectively, in buffer 2. Two μl of the compound solution were mixed with 2 μl of the diluted enzyme in a 384-well small volume microtiter plate (Greiner, Bio-One, Frickenhausen, Germany), and the kinase reaction was initiated by addition of 2 μl of the solution containing peptide substrate and ATP. After 60 min incubation at 32° C., the reaction was stopped by addition of 20 μl of a solution containing 130 mM Hepes-NaOH, pH 7.4. 0.0195% (v/v) Brij-35, 6.5 mM EDTA. 0.13% chip coating reagent 3 (Caliper Lifescience Inc, Hopkinton, Mass.) and 6.5% (v/v) DMSO. Phosphorylation of the substrate peptide was then detected on a Caliper 3000 instrument essentially as described by Pommereau et al (J. Biomol. Screening 2004, 9(5), 409-416). Separation conditions were as follows: Pressure −0.8 psi, upstream voltage −3000 V, downstream voltage −800 V. Positive controls (buffer 1 instead of compound) and negative controls (buffer 1 instead of compound and buffer 2 instead of kinase solution) were run in parallel on each plate. Fractional turnover (R) was determined as the height of the peak of the phosphorylated peptide product divided by the sum of the unphosphorylated substrate and phosphorylated product peak heights. Percent-inhibition values for the test compounds were determined using the formula % Inhibition=100*(1−(Rcompound−Rnegative control)/(Rpositive control−Rnegative control).
In the following table % inhibition values observed with example compounds at a final concentration of 1.14 μM (±0.15 μM) are listed: […]

T1 sequence (P05771 1-673 isoform P05771-2): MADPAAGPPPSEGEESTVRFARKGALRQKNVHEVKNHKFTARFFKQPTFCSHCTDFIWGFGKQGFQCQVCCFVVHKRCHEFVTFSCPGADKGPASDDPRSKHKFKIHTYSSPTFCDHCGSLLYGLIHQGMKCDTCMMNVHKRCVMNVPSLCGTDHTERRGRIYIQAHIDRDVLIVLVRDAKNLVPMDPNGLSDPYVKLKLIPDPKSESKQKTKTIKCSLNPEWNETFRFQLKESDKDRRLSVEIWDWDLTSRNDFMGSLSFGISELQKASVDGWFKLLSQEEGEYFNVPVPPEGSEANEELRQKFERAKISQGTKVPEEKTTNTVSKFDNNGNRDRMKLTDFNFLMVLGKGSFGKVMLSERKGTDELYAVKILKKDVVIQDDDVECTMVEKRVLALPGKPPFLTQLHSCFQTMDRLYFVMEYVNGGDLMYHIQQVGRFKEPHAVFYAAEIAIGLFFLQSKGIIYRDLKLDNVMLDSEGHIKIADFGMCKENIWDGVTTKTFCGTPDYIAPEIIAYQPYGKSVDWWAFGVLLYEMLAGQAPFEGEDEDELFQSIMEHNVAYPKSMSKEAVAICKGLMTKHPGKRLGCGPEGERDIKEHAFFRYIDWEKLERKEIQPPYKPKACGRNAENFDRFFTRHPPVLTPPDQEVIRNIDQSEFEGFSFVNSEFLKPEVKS

For orientation: inhibition means the drop in the measured response relative to a control, in per cent. Turning to `Cc1n[nH]c2nc(-c3ccc(O)cc3)cc(C(=O)N3CC4CC3CN4)c12` (stereo not drawn) [Example 19, 2,5-Diaza-bicyclo[2.2.1]hept-2-yl-[6-(4-hydroxy-phenyl)-3-methyl-1H-pyrazolo[3,4-b]pyridin-4-yl]-methanone], the inhibition at 1.14 µM came to 92%.

`CC[C@H]1CNCCN1C(=O)c1cc(-c2ccc(O)cc2)nc2[nH]nc(C)c12` [Example 20, ((S)-2-Ethyl-piperazin-1-yl)-[6-(4-hydroxy-phenyl)-3-methyl-1H-pyrazolo[3,4-b]pyridin-4-yl]-methanone]: the inhibition at 1.14 µM stood at 110%.

Consider `COC[C@H]1CNCCN1C(=O)c1cc(-c2ccc(O)cc2)nc2[nH]nc(C)c12` [Example 21, [6-(4-Hydroxy-phenyl)-3-methyl-1H-pyrazolo[3,4-b]pyridin-4-yl]-((R)-2-methoxymethyl-piperazin-1-yl)-methanone], for which the inhibition at 1.14 µM amounted to 121%.

With `Cc1n[nH]c2nc(-c3ccc(O)cc3)cc(C(=O)N(CCc3ccccc3)[C@@H]3CCCNC3)c12` [Example 22, 6-(4-Hydroxy-phenyl)-3-methyl-1H-pyrazolo[3,4-b]pyridine-4-carboxylic acid phenethyl-(R)-piperidin-3-yl-amide], the inhibition at 1.14 µM turned out to be 63%.

On to `Cc1n[nH]c2nc(-c3ccc(O)cc3)cc(C(=O)N3CCNC[C@H]3C)c12` [Example 23, [6-(4-Hydroxy-phenyl)-3-methyl-1H-pyrazolo[3,4-b]pyridin-4-yl]-((R)-2-methyl-piperazin-1-yl)-methanone], for which the inhibition at 1.14 µM worked out at 95%.

As for `Cc1n[nH]c2nc(-c3ccc(O)cc3)cc(C(=O)N3C[C@@H](C)N[C@@H](C)C3)c12` [Example 24, ((3R,5S)-3,5-Dimethyl-piperazin-1-yl)-[6-(4-hydroxy-phenyl)-3-methyl-1H-pyrazolo[3,4-b]pyridin-4-yl]-methanone], the inhibition at 1.14 µM was 95%.

On to `Cc1n[nH]c2nc(-c3ccc(O)cc3)cc(C(=O)N3CCNC(c4ccccc4)C3)c12` (stereo not drawn) [Example 25, [6-(4-Hydroxy-phenyl)-3-methyl-1H-pyrazolo[3,4-b]pyridin-4-yl]-(3-phenyl-piperazin-1-yl)-methanone], for which the inhibition at 1.14 µM worked out at 89%.

Regarding `Cc1n[nH]c2nc(-c3ccc(O)cc3)cc(C(=O)N3CCNCC3c3ccccc3)c12` (stereo not drawn) [Example 26, [6-(4-Hydroxy-phenyl)-3-methyl-1H-pyrazolo[3,4-b]pyridin-4-yl]-(2-phenyl-piperazin-1-yl)-methanone], the inhibition at 1.14 µM turned out to be 97%.

For `Cc1n[nH]c2nc(-c3ccc(O)cc3)cc(C(=O)N3CCNC[C@@H]3c3ccccc3)c12` [Example 27, [6-(4-Hydroxy-phenyl)-3-methyl-1H-pyrazolo[3,4-b]pyridin-4-yl]-((S)-2-phenyl-piperazin-1-yl)-methanone], the inhibition at 1.14 µM came to 95%.

Turning to `Cc1n[nH]c2nc(-c3ccc(O)cc3)cc(C(=O)N3CCNC[C@H]3c3ccccc3)c12` [Example 28, [6-(4-Hydroxy-phenyl)-3-methyl-1H-pyrazolo[3,4-b]pyridin-4-yl]-((R)-2-phenyl-piperazin-1-yl)-methanone], the inhibition at 1.14 µM was determined as 99%.

Consider `Cc1n[nH]c2nc(-c3ccc(O)cc3)cc(C(=O)N3CCNCC3c3ccc(Cl)c(Cl)c3)c12` (stereo not drawn) [Example 29, [2-(3,4-Dichloro-phenyl)-piperazin-1-yl]-[6-(4-hydroxy-phenyl)-3-methyl-1H-pyrazolo[3,4-b]pyridin-4-yl]-methanone], for which the inhibition at 1.14 µM amounted to 99%.

Take `Cc1n[nH]c2nc(-c3ccc(O)cc3)cc(C(=O)N3CCNCC3c3ccco3)c12` (stereo not drawn) [Example 30, (2-Furan-2-yl-piperazin-1-yl)-[6-(4-hydroxy-phenyl)-3-methyl-1H-pyrazolo[3,4-b]pyridin-4-yl]-methanone]: the inhibition at 1.14 µM stood at 96%.

`Cc1n[nH]c2nc(-c3ccc(O)cc3)cc(C(=O)N3CCNCC3c3cccs3)c12` (stereo not drawn) [Example 31, [6-(4-Hydroxy-phenyl)-3-methyl-1H-pyrazolo[3,4-b]pyridin-4-yl]-(2-thiophen-2-yl-piperazin-1-yl)-methanone]: the inhibition at 1.14 µM was 99%.

For `Cc1n[nH]c2nc(-c3ccc(O)cc3)cc(C(=O)N3CCNCC3c3ccc4c(c3)OCO4)c12` (stereo not drawn) [Example 32, (2-Benzo[1,3]dioxol-5-yl-piperazin-yl)-[6-(4-hydroxy-phenyl)-3-methyl-1H-pyrazolo[3,4-b]pyridin-4-yl]-methanone], the inhibition at 1.14 µM was 98%.

Take `Cc1n[nH]c2nc(-c3ccc(O)cc3)cc(C(=O)N3CC(C(C)(C)N)C3)c12` [Example 33, [3-(1-Amino-1-methyl-ethyl)-azetidin-1-yl]-[6-(4-hydroxy-phenyl)-3-methyl-1H-pyrazolo[3,4-b]pyridin-4-yl]-methanone]: the inhibition at 1.14 µM worked out at 91%.

With `Cc1n[nH]c2nc(-c3ccc(O)cc3)cc(C(=O)N3CCC(CN)(c4ccccc4)CC3)c12` [Example 34, (4-Aminomethyl-4-phenyl-piperidin-1-yl)-[6-(4-hydroxy-phenyl)-3-methyl-1H-pyrazolo[3,4-b]pyridin-4-yl]-methanone], the inhibition at 1.14 µM was determined as 69%.

With `Cc1n[nH]c2nc(-c3ccc(O)cc3)cc(C(=O)NCCN3CCCC3)c12` [Example 35, 6-(4-Hydroxy-phenyl)-3-methyl-1H-pyrazolo[3,4-b]pyridine-4-carboxylic acid (2-pyrrolidin-1-yl-ethyl)-amide], the inhibition at 1.14 µM was found to be 52%.

Regarding `Cc1n[nH]c2nc(-c3ccc(O)cc3)cc(C(=O)N3CCN(C(C)C)CC3)c12` [Example 36, [6-(4-Hydroxy-phenyl)-3-methyl-1H-pyrazolo[3,4-b]pyridin-4-yl]-(4-isopropyl-piperazin-1-yl)-methanone], the inhibition at 1.14 µM is 40%.

On to `Cc1n[nH]c2nc(-c3ccc(O)cc3)cc(C(=O)N3CCN(C)CC3)c12` [Example 37, [6-(4-Hydroxy-phenyl)-3-methyl-1H-pyrazolo[3,4-b]pyridin-4-yl]-(4-methyl-piperazin-1-yl)-methanone], for which the inhibition at 1.14 µM was 53%.

On to `Cc1n[nH]c2nc(-c3ccc(O)cc3)cc(C(=O)NCCN(C)C)c12` [Example 38, 6-(4-Hydroxy-phenyl)-3-methyl-1H-pyrazolo[3,4-b]pyridine-4-carboxylic acid (2-dimethylamino-ethyl)-amide], for which the inhibition at 1.14 µM is 80%.

On to `Cc1n[nH]c2nc(-c3ccc(O)cc3)cc(C(=O)N3CCN(C4CCC4)CC3)c12` [Example 39, (4-Cyclobutyl-piperazin-1-yl)-[6-(4-hydroxy-phenyl)-3-methyl-1H-pyrazolo[3,4-b]pyridin-4-yl]-methanone], for which the inhibition at 1.14 µM is 45%.

Take `Cc1n[nH]c2nc(-c3ccc(O)cc3)cc(C(=O)N(C)CCNC(C)(C)C)c12` [Example 40, 6-(4-Hydroxy-phenyl)-3-methyl-1H-pyrazolo[3,4-b]pyridine-4-carboxylic acid (2-tert-butylamino-ethyl)-methyl-amide]: the inhibition at 1.14 µM came out at 38%.

For the compound `Cc1n[nH]c2nc(-c3ccc(O)cc3)cc(C(=O)NC3(C)CCNCC3)c12` [Example 41, 6-(4-Hydroxy-phenyl)-3-methyl-1H-pyrazolo[3,4-b]pyridine-4-carboxylic acid (4-methyl-piperidin-4-yl)-amide], the inhibition at 1.14 µM came to 95%.

As to `Cc1n[nH]c2nc(-c3ccc(O)cc3)cc(C(=O)N3CCNCC34Cc3ccccc3C4)c12` [Example 42, (1,3-Dihydro-spiro[indene-2,2′-piperazin]-1′-yl)-[6-(4-hydroxy-phenyl)-3-methyl-1H-pyrazolo[3,4-b]pyridin-4-yl]-methanone], the inhibition at 1.14 µM was 72%.
